Data as given in patent publication US20150175681A1 (priority 2010, published 2015).

Key:
Format in all cases: in vivo
[1] = tested on: C. difficile (ATCC 43596); settings: Example 5C
[2] = tested on: C. difficile (ATCC 43596 strain); settings: Example 5B
[3] = tested on: C. difficile (ATCC 43596, strain 545)
[4] = Example 5E, vancomycin 20 mg/kg
[5] = Example 5E, vancomycin 20 mg/kg BID × 5 days

`CN[C@H](CC(C)C)C(=O)N[C@H]1C(=O)N[C@@H](CC(N)=O)C(=O)N[C@H]2C(=O)N[C@H]3C(=O)N[C@H](C(=O)N[C@H](C(=O)O)c4cc(O)cc(O)c4-c4cc3ccc4O)[C@H](O)c3ccc(c(Cl)c3)Oc3cc2cc(c3O[C@@H]2O[C@H](CO)[C@@H](O)[C@H](O)[C@H]2O[C@H]2C[C@](C)(N)[C@H](O)[C@H](C)O2)Oc2ccc(cc2Cl)[C@H]1O` [Vancomycin] was tested, and the “% mortality” value ([1]; 40 days, vancomycin 20 mg/kg PO BID × 5 days, mAbs 50 mg/kg (combination 50, 50) IP Q2d × 4, 7 hamsters) was 100%, the “number of hamster deaths, day of study 12” value ([1]; doses as Table 4) was 1 and the “number of hamster deaths, day of study 14” value ([1]; doses as Table 4) was 2. The “number of hamster deaths, day of study 15” value ([1]; doses as Table 4) was 1, the “number of hamster deaths, day of study 18” value ([1]; doses as Table 4) was 1 and the “number of hamster deaths, day of study 19” value ([1]; doses as Table 4) was 2. For the same molecule, the “% mortality” value ([2]; 37 days, vancomycin 20 mg/kg PO BID × 5 days, goat polyclonal Abs 1 mL/hamster, PA-38 + PA-41 50, 50 mg/kg, PA-39 + PA-41 50, 40 mg/kg IP Q2d × 4) was 88%, the “number of hamster deaths, day of study 15” value ([2]; doses as Table 2, 8 animals) was 1 and the “number of hamster deaths, day of study 18” value ([2]; doses as Table 2, 8 animals) was 5. For the same molecule, the “number of hamster deaths, day of study 19” value ([2]; doses as Table 2, 8 animals) was 1, the mean body weights ([2]; first week after infection) was “declined significantly during the first week after infection” and the “hamsters found dead between Days 15 and 19” value ([2]; vancomycin 20 mg/kg BID Days 1-5) was “seven of eight”. For the same molecule, the “mean body weights over the study” value ([3]; Example 5E, to day 39) was “decreased during the first week post-infection and then rebounded”, the “Day 40 Survival” value [3, 4] was 0% and the “Median Survival” value [3, 4] was 20 days. For the same molecule, the “% mortality” value [3, 5] was 100%, the “number of hamster deaths, day of study 11 to 14” value [3, 5] was 1 and the “number of hamster deaths, day of study 18 to 20” value [3, 5] was 5. The “number of hamster deaths, day of study 22” value [3, 5] was 2 and the “cecal C. difficile, mean CFU” value ([3]; in vivo) was 6.01±0.93 log10.
